Converted amounts (≈) assume the structure as drawn. Bridge positions count the residues as written; N and C are the ends. Square brackets hold non-standard residues; d marks the D form. Peptide text beside a SMILES is read from it. * marks the point of attachment. Ileψ(thiazoline)Cys = CC[C@H](C)[C@H](N)C1=N[C@H](C(=O)*)CS1; dOrn = NCCC[C@@H](N)C(=O)O
Assays:
Type in all cases: cell-based
[1] = test system: Bacillus sp. M-00-PHD-090 (CETC 4546); assay: Antibiotic sensitivity of the producing strain (PASCO Data Management System MIC Gram Positive); settings: 28° C., 48 hours incubation
Procedure: 5. Antibiotic Sensitivity - PASCO™ Data Management System (Difco) MIC Gram Positive
All cultures were incubated at 28° C. and records of the results were made after 48 hours incubation time. The descriptions of the culture and test results are as follows: […]

[2] = test system: A-549 (monolayer culture of a human lung carcinoma); assay: Antitumor activity: growth inhibition of A-549 cells, 3 days, Crystal Violet staining; settings: for IC50: Homo sapiens, A549, 72 h, A-549, three days, 37° C., approximate IC50; for antitumour activity against A-549 human lung carcinoma: statement in words
Text: (§1) An adapted form of the method described by Bergeron et al ("Antineoplastic an antiherpetic activity of spermidine catecholamide iron chelators" Biochem. Bioph. Res. Comm., 1984, 121(3), 848-854, and see also Schroeder et al, "Effects of Acyclic Pyrimidine Nucleoside Analogues" Med. Chem., 1981, 24 1078-1083) was used to determine the antitumor activity of the compounds of this invention. Three cultures of antitumour cell were employed. A-549 (monolayer culture of a human lung carcinoma, HT-29 (monolayer culture of a human colon carcinoma) and MEL-28 J (monolayer culture of a human melanoma).
(§2) A-549, HT-29 and MEL-28 were seeded into 16 mm wells at 2×20" cells per well in 1 ml aliquots of MEM 10FCS containing the identical concentration of drug. A separate set of cultures without drug was seeded a control growth to ensure that cells remained in exponential phase of growth. All determinations were carried out in duplicate. After three days of incubation at 37° C., 10% CO2 in 98% humid atmosphere, the wells were stained with 0.1% Crystal Violet. An approximate IC50 was determined by comparing growth in wells with drug to the growth in control wells.

[3] = test system: MEL-28 (monolayer culture of a human melanoma); assay: Antitumor activity: growth inhibition of MEL-28 cells, 3 days, Crystal Violet staining; settings: for IC50: Homo sapiens, SK-MEL-28, 72 h, MEL-28, three days, 37° C., approximate IC50; for antitumour activity against MEL-28 human melanoma: statement in words
Text: as §1, §2

[4] = test system: HT-29 (monolayer culture of a human colon carcinoma); assay: Antitumor activity: growth inhibition of HT-29 cells, 3 days, Crystal Violet staining; settings: for IC50: Homo sapiens, 72 h, HT-29, three days, 37° C., approximate IC50; for antitumour activity against HT-29 human colon carcinoma: statement in words
Text: as §1, §2

Compound	Antibiotic sensitivity [1]	further results
CCn1cc(C(=O)O)c(=O)c2ccc(C)nc21 [nalidixic acid]	Sensitive	–
CO[C@@H]1[C@@H](OC(N)=O)[C@@H](O)[C@H](Oc2ccc3c(O)c(NC(=O)c4ccc(O)c(CC=C(C)C)c4)c(=O)oc3c2C)OC1(C)C [novobiocin]	Sensitive	–
N[C@@H](C(=O)N[C@@H]1C(=O)N2C(C(=O)O)=C(Cl)CS[C@H]12)c1ccccc1 [ceflactor]	Sensitive	–
CCn1cc(C(=O)O)c(=O)c2cc(F)c(N3CCNCC3)cc21 [norfloxacin]	Sensitive	–
CC[C@H]1OC(=O)[C@H](C)[C@@H](O[C@H]2C[C@@](C)(OC)[C@@H](O)[C@H](C)O2)[C@H](C)[C@@H](O[C@@H]2O[C@H](C)C[C@H](N(C)C)[C@H]2O)[C@](C)(O)C[C@@H](C)C(=O)[C@H](C)[C@@H](O)[C@]1(C)O [erythromycin]	Sensitive	–
NCC[C@H](O)C(=O)N[C@@H]1C[C@H](N)[C@@H](O[C@H]2O[C@H](CN)[C@@H](O)[C@H](O)[C@H]2O)[C@H](O)[C@H]1O[C@H]1O[C@H](CO)[C@@H](O)[C@H](N)[C@H]1O [amikacin]	Sensitive	–
[H]/N=C(/N)N[C@H]1[C@H](O)[C@@H](O)[C@H](O[C@@H]2O[C@@H](C)[C@](O)(C=O)[C@H]2O[C@@H]2O[C@@H](CO)[C@H](O)[C@@H](O)[C@@H]2NC)[C@@H](N/C(N)=N\[H])[C@@H]1O [streptomycin]	Sensitive	–
CC1(C)S[C@@H]2[C@H](NC(=O)[C@H](N)c3ccccc3)C(=O)N2[C@H]1C(=O)O [ampicillin]	Sensitive	–
CN(C)C1C(=O)C(C(N)=O)=C(O)C2(O)C(=O)C3=C(O)c4c(O)cccc4C(C)(O)C3CC12 (stereo not shown) [tretracycline]	Sensitive	–
C[C@@H]1O[C@@H]1P(=O)(O)O [fosfomicin]	Sensitive	–
Cc1onc(-c2ccccc2)c1C(=O)N[C@@H]1C(=O)N2[C@@H]1SC(C)(C)[C@@H]2C(=O)O [oxacillin]	Sensitive	–
CC(C)CC(N)C(O)C(O)C(=O)NC(CC(C)C)C1Cc2cccc(O)c2C(=O)O1 (stereo not shown) [PM-94128]	–	IC50 [2]: 0.02 µg/mL (≈ 0.0473 µM); antitumour activity against A-549 human lung carcinoma [2]: exhibit antitumour activity; IC50 [3]: 0.02 µg/mL (≈ 0.0473 µM); antitumour activity against MEL-28 human melanoma [3]: exhibit antitumour activity; IC50 [4]: 0.02 µg/mL (≈ 0.0473 µM); antitumour activity against HT-29 human colon carcinoma [4]: exhibit antitumour activity
CO/N=C(\C(=O)N[C@@H]1C(=O)N2C(C(=O)O)=C(COC(N)=O)CS[C@H]12)c1ccco1 [cefuroxime]	Sensitive	–
CC(C)CC(NC(=O)C(O)C(O)C(N)CC(N)=O)C1Cc2cccc(O)c2C(=O)O1 (stereo not shown) [Amicoumacin A, amicoumacin A]	–	IC50 [2]: 0.75 µg/mL (≈ 1.77 µM); antitumour activity against A-549 human lung carcinoma [2]: exhibit antitumour activity; IC50 [3]: 0.15 µg/mL (≈ 0.354 µM); antitumour activity against MEL-28 human melanoma [3]: exhibit antitumour activity; IC50 [4]: 1.5 µg/mL (≈ 3.54 µM); antitumour activity against HT-29 human colon carcinoma [4]: exhibit antitumour activity
teicoplanin	resistant	–
CO[C@@]1(NC(=O)Cc2cccs2)C(=O)N2C(C(=O)O)=C(COC(N)=O)CS[C@@H]21 [cefoxitin]	Sensitive	–
CC[C@H](C)[C@H](N)C1=N[C@H](C(=O)N[C@@H](CC(C)C)C(=O)N[C@H](CCC(=O)O)C(=O)N[C@H](C(=O)N[C@H]2CCCCNC(=O)[C@H](CC(N)=O)NC(=O)[C@@H](CC(=O)O)NC(=O)[C@H](Cc3cnc[nH]3)NC(=O)[C@@H](Cc3ccccc3)NC(=O)[C@H]([C@@H](C)CC)NC(=O)[C@@H](CCCN)NC2=O)[C@@H](C)CC)CS1 [bacitracin] ({Ileψ(thiazoline)Cys}-L[dE]IK[dOrn]I[dF]H[dD]N; lactam 4-C)	resistant	–
CN[C@H](CC(C)C)C(=O)N[C@H]1C(=O)N[C@@H](CC(N)=O)C(=O)N[C@H]2C(=O)N[C@H]3C(=O)N[C@H](C(=O)N[C@H](C(=O)O)c4cc(O)cc(O)c4-c4cc3ccc4O)[C@H](O)c3ccc(c(Cl)c3)Oc3cc2cc(c3O[C@@H]2O[C@H](CO)[C@@H](O)[C@H](O)[C@H]2O[C@H]2C[C@](C)(N)[C@H](O)[C@H](C)O2)Oc2ccc(cc2Cl)[C@H]1O [vancomycin]	resistant	–
CO[C@H]1/C=C/O[C@@]2(C)Oc3c(C)c(O)c4c(O)c(c(/C=N/N5CCN(C)CC5)c(O)c4c3C2=O)NC(=O)/C(C)=C\C=C\[C@H](C)[C@H](O)[C@@H](C)[C@@H](O)[C@@H](C)[C@H](OC(C)=O)[C@@H]1C [rifampicin]	Sensitive	–
CC1(C)S[C@@H]2[C@H](NC(=O)Cc3ccccc3)C(=O)N2[C@H]1C(=O)O [penicillin]	Sensitive	–
gentamicin	Sensitive	–

Reference: patent publication US5925671A, “Antitumor isocoumarins” (Pharma Mar, s.a., priority 1995, dated 1999)
